From PubChem BioAssay AID489034 (Sanford-Burnham Center for Chemical Genomics, 2010)
Calls of active or inactive are those of the source.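 Rule for the calls: active = mean IC50 at or below a set limit; inactive = the rest.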

The compounds below were run on 697 B-cell NF-kB luciferase reporter, PMA/ionomycin, 16 h (assay: NF-kB reporter suppression in B cells – 697 B cells, PMA/ionomycin, luminescence, dose response (AID 489034)).

Compound | IC50
Cc1cc(Cl)c(S(=O)(=O)N2CCCCCC2)cc1OCC(=O)NC1CCCCC1 | > 80000 nM (inactive)
O=C(CCl)N1CCCC1c1ccc2c(c1)OCCO2 (centres undefined) | 478 nM
CCCCCCCCCCCCn1ccc(=N)cc1 | 9190 nM
COc1ccccc1C(=O)Nc1nc2ccccc2[nH]1 | 454 nM
Cc1ccc2nc(NC(=O)CCCC(=O)O)sc2c1 | 2130 nM
CC(=O)OC(C)(C)/C=C/C(=O)[C@](C)(O)C1[C@H](O)C[C@@]2(C)C3CC=C4C(C[C@H](O)C(=O)C4(C)C)[C@]3(C)C(=O)C[C@]12C (some centres undefined) | 7020 nM
Cc1cc([N+](=O)[O-])nn1Cc1ccccc1F | > 80000 nM (inactive)
C[n+]1c(-c2ccccc2)c2cc(N)ccc2c2ccc(N)cc21 | > 80000 nM (inactive)
C#CC(=O)N(c1ccc(OC)c(OC)c1)C(C(=O)NC1CCCC1)c1cccs1 (centres undefined) | 200 nM
O=C(CN1C(=O)c2ccccc2S1(=O)=O)c1ccc2c(c1)OCCO2 | < 160 nM
COc1cc2nc(NC(=O)c3ccccc3)sc(=O)c2cc1OC | 444 nM
CCCCCCCCCCOC(=O)Cn1c(COc2ccccc2OC)[n+](C)c2ccccc21 | > 80000 nM (inactive)
CCn1c(C)nc2cc(-c3nc4n(n3)Cc3ccccc3-4)ccc21 | 198 nM
O=C(CCl)N=c1sccn1Cc1ccccc1Cl | 222 nM
CCc1cc2c(Sc3nc4ccccc4s3)ncnc2s1 | < 160 nM
COc1ccc(CCNc2ncnc3sccc23)cc1OC | 77400 nM (inactive)
CCCCCCCCCn1ccc(=N)cc1 | 46200 nM (inactive)
COc1ccc(-c2c[n+]3c(n2-c2ccc(C)cc2)CCCCC3)cc1 | > 80000 nM (inactive)
O=C(c1ccc(Br)cc1)c1cc([N+](=O)[O-])ccc1N1CCCCC1 | > 80000 nM (inactive)
CN(C)c1cc[n+](CC(=O)c2ccc(-c3ccccc3)cc2)cc1 | 47400 nM (inactive)
O=C(COC(=O)c1ccc[nH]c1=O)Nc1ccc(N2CCCCC2)cc1 | 436 nM
COc1cccc2c1C(CO)N1C(C#N)C3CC(C(=O)O)C(C1C2)N3C (centres undefined) | 253 nM
C=C1C(=O)O[C@@H]2C[C@@H](C)[C@@H]3C=CC(=O)[C@@]3(C)[C@@H](OC(C)=O)[C@H]12 | > 80000 nM (inactive)
c1ccc(-c2ccc(-c3nc(-c4ccccn4)no3)cc2)cc1 | 967 nM
C#CC(=O)N(c1ccc(OC)cc1OC)C(C(=O)NC1CCCC1)c1cccs1 (centres undefined) | 252 nM

Compound | IC50
Cc1ccc(Cn2ccsc2=NC(=O)CCl)cc1 | 489 nM
Cc1ccc(NC(=O)COc2ccc(N(C)C(=O)C(C)(C)C)cc2)cc1S(=O)(=O)N1CCCCC1 | > 80000 nM (inactive)
CCOC(=O)C1CCCN(S(=O)(=O)c2ccc(S(=O)(=O)N(CC)CC)cc2)C1 (centres undefined) | > 80000 nM (inactive)
C=CCn1c(C)cc(C(=O)CN2C(=O)c3ccccc3S2(=O)=O)c1C | 656 nM
Cn1nccc1C(=O)NC1CCCc2c1cnn2-c1ccccc1F (centres undefined) | 56300 nM (inactive)
COc1cc(NC(=O)COc2cc(O)c3c(c2)OC(C)(C)CC3=O)cc(OC)c1OC | 36900 nM (inactive)
COc1ccc(OC)c(C2C3=C(COC3=O)Nc3cc4c(cc32)OCO4)c1 (centres undefined) | > 80000 nM (inactive)
C=C1C(O)[C@@H]2O[C@]3(CC[C@H](/C=C/C(C)[C@@H]4CC(C)=CC5(O[C@H](C[C@@](C)(O)C(=O)O)CCC5O)O4)O3)CC[C@H]2O[C@@H]1C(O)CC(C)[C@H]1OC2(CCCCO2)CCC1C (some centres undefined) | < 160 nM
COc1ccc(CCNc2ncnc3sc(C)cc23)cc1OC | 33400 nM (inactive)
COc1ccc(CN(C)c2ccc(S(=O)(=O)N3CCN(C)CC3)cc2[N+](=O)[O-])cc1OC | > 80000 nM (inactive)
C=C1C(=O)O[C@@H]2C[C@@H](C)[C@@H]3C=CC(=O)[C@@]3(C)[C@@H](OC(=O)CC(=O)O[C@H]3[C@@H]4C(=C)C(=O)O[C@@H]4C[C@@H](C)[C@@H]4C=CC(=O)[C@]43C)[C@H]12 | 377 nM
CCOc1ccc(S(=O)(=O)NCc2ccncc2)cc1 | > 80000 nM (inactive)
O=C1/C(=C/c2ccccc2)C[C@@]2(O)[C@H]3Cc4ccc(O)c5c4[C@@]2(CCN3CC2CC2)C1O5 (some centres undefined) | 6200 nM
COc1cccc2c1C(=O)c1c(O)c3c(c(O)c1C2=O)C[C@@](O)(C(=O)CO)C[C@@H]3O[C@H]1C[C@H](N)[C@@H](O)[C@H](C)O1 | 3530 nM
COc1cc2c(cc1OC)[C@@H]1C(=O)c3ccc4c(c3O[C@@H]1CO2)C[C@H](C(C)C)O4 | > 80000 nM (inactive)
CCCCCCCCNc1ncnc2ccccc12 | > 80000 nM (inactive)
CC(Nc1ncnc2sccc12)c1ccccc1 (centres undefined) | 64400 nM (inactive)
COc1ccc(CNc2ncc(-c3ccc(F)cc3)n2C)c2ccccc12 | 1570 nM
c1ccc2sc(Sc3ncnc4sccc34)nc2c1 | 197 nM
O=C(Nc1ccc(Cl)cc1)Nc1cccc(C(=O)O)c1 | 2220 nM
Nc1nc(Cl)nc2c1ncn2[C@H]1C[C@H](O)[C@@H](CO)O1 | 5060 nM
CN(C(=O)OC(C)(C)C)c1ccc(-c2nc3ccccc3s2)cc1 | < 160 nM
O=C(Nc1nc(-c2ccc(F)c(F)c2)cs1)c1ccc(OCC2CCCO2)cc1 (centres undefined) | > 80000 nM (inactive)
CN(C)c1ccc(-c2n(C)c3ccccc3[n+]2C)cc1 | > 80000 nM (inactive)
O=C(/C=C/c1ccccc1)Nc1cccc(C(=O)O)c1 | 620 nM

Compound | IC50
Cc1ccnc(NC(=O)CCCOc2cc(=O)n(C)c3ccccc23)c1 | 8540 nM
Cc1cc(N2CCN(c3nc4ccccc4s3)CC2)n2ncnc2n1 | > 80000 nM (inactive)
CCN1/C(=C/c2ccc3cc(C)ccc3[n+]2CC)Sc2ccccc21 | > 80000 nM (inactive)
COc1ccc(-c2cc3nc(C)n(N)c(=O)c3s2)cc1 | 673 nM
CC(C)Cc1cc(C(C)(C)C)ccc1OC(=S)N(C)C | > 80000 nM (inactive)
CCOc1ccc(-n2c(-c3ccc(OC)cc3)c[n+]3c2CCCCC3)cc1 | > 80000 nM (inactive)
N#Cc1c(NC(=O)CSc2ncn[nH]2)sc2c1CCCC2 | 300 nM
CCn1c(C)cc(C(=O)COC(=O)c2ccccc2[N+](=O)[O-])c1C | < 160 nM
CC1CCN(c2nc3ccc(C(=O)O)cc3s2)CC1 | 1330 nM
OCCCNc1cc(-c2ccnc(Nc3cccc(Cl)c3)n2)ccn1 | < 160 nM
Cc1nn(C(C)(C)C)c(C)c1/C=N/OC(=O)Nc1ccc(Cl)cc1 | < 160 nM
CCCCCCn1ccc(=N)cc1 | > 80000 nM (inactive)
COc1ccc(C[C@H]2NC[C@H](O)[C@H]2OC(C)=O)cc1 | < 160 nM
COc1ccc(-c2nc(-c3ccccn3)no2)cc1 | 872 nM
Cc1sc2ncnc(N3CCN(CCOc4ccc(Cl)cc4)CC3)c2c1C | > 80000 nM (inactive)
COc1ccc(C(=O)CN2C(=O)c3ccccc3S2(=O)=O)cc1 | 691 nM
Cc1cc(C(=O)COC(=O)c2ccccc2O)c(C)n1CC1CCCO1 (centres undefined) | 267 nM
C=CC(=O)Nc1ccc(Nc2nc(NC3CCC(N(C)C)CC3)nc3c2ncn3C(C)C)cc1 (centres undefined) | 593 nM
Cc1nn(-c2ccccc2)c(C)c1/C=N/NC(=O)c1cc(-c2cccs2)[nH]n1 | 21500 nM (inactive)
COc1cc(SC)ccc1C(=O)Nc1nc2ccccc2[nH]1 | < 160 nM
N=c1c2c(-c3ccccc3)c(-c3ccccc3)n(Cc3ccccc3)c2ncn1CCCn1ccnc1 | 32200 nM (inactive)
COC(=O)Cc1ccc(NC(=O)c2ccc(C(C)(C)C)cc2)cc1 | < 160 nM
O=C(O)CSCC(=O)Nc1ccc(C2CCCCC2)cc1 | 776 nM
CCOc1ccc(/C=C2\SC(=S)N(CCC(=O)O)C2=O)cc1 | 211 nM
C[C@@H]1O[C@@H](O[C@@H]2C=C3CCC4C(CC[C@]5(C)[C@@H](c6ccc(=O)oc6)CC[C@]45O)[C@@]3(C)CC2)[C@H](O)[C@H](O)[C@H]1O (some centres undefined) | < 160 nM

Compound | IC50
CC1CCCN(c2ccc([N+](=O)[O-])cc2C(=O)c2ccccc2)C1 (centres undefined) | > 80000 nM (inactive)
CC(=O)O[C@H]1[C@H]2O[C@]23[C@@H]2CC[C@]4(O)C[C@@H](O)CC[C@]4(C)C2CC[C@]3(C)[C@H]1c1ccc(=O)oc1 (some centres undefined) | 223 nM
CCN1/C(=C\c2ccc3ccccc3[n+]2CC)Sc2cc(C)ccc21 | > 80000 nM (inactive)
CC1(c2ccc3ccccc3c2)NC(=O)N(CC(=O)N2CCN(Cc3ccc(C#N)cc3)CC2)C1=O (centres undefined) | > 80000 nM (inactive)
CCCCCNC(=O)c1ccc2c(=O)n(CC3CCCO3)c(=O)[nH]c2c1 (centres undefined) | > 80000 nM (inactive)
C[C@@H]1O[C@@H](O[C@@H]2C=C3CC[C@@H]4C(CC[C@]5(C)[C@@H](c6ccc(=O)oc6)CC[C@]45O)[C@@]3(C)CC2)[C@H](O)[C@H](O)[C@H]1O (some centres undefined) | < 160 nM
C=C1C(=O)O[C@@H]2C[C@@H](C)[C@@H]3C=CC(=O)[C@@]3(C)[C@@H](O)[C@H]12 | > 80000 nM (inactive)
C#CC(=O)N(c1cccc(OC)c1)C(C(=O)NC1CCCC1)c1cccs1 (centres undefined) | 219 nM
COc1cc(NC(C)CCCN)c2ncccc2c1 (centres undefined) | > 80000 nM (inactive)
COc1cccc2c1C(=O)c1c(O)c3c(c(O)c1C2=O)C[C@@](O)(C(=O)CO)C[C@@H]3O[C@H]1C[C@H](N)[C@H](O)[C@H](C)O1 | > 80000 nM (inactive)
CCCCCc1ccc(OCCCC[n+]2cccc(C)c2)c(CCCCC)c1 | > 80000 nM (inactive)
CCC(C)(C)c1ccc(OCCCC[n+]2ccc(C)cc2)c(C(C)(C)CC)c1 | 22300 nM (inactive)
O=S(=O)(NCC1CCCO1)c1ccc(-c2ccc(S(=O)(=O)NCC3CCCO3)cc2)cc1 (centres undefined) | > 80000 nM (inactive)
COc1cc([N+](=O)[O-])cc(/C=N/NC(=O)c2ccc(NC(=O)c3ccc(C)cc3)cc2)c1O | 1020 nM
C[C@@H]1C[C@@H]2O[C@H]2/C=C\C=C\C(=O)Cc2c(Cl)c(O)cc(O)c2C(=O)O1 | 275 nM
Cn1nccc1C(=O)NC1CCCc2c1cnn2-c1ccc(F)cc1F (centres undefined) | > 80000 nM (inactive)
O=C(CSc1nnnn1C1CC2CCC1C2)Nc1ccnc2ccccc12 (centres undefined) | > 80000 nM (inactive)
COc1ccc(C(=O)Nc2nc3ccccc3s2)c(OC)c1 | 275 nM
COCCn1c(C)cc(C2=NNC(=NC3CC3)SC2)c1C | < 160 nM
O=C(CN1C(=O)c2ccccc2S1(=O)=O)c1ccc2c(c1)OCCCO2 | < 160 nM
CC(C)(C)c1ccc(C(=O)Nc2ccc(CC(=O)O)cc2)o1 | < 160 nM
CN=c1scc(-c2ccccc2F)n1/N=C/c1ccc[nH]1 | 702 nM
COc1ccc(/C=C2\SC(=O)N(CCCC(=O)Nc3cc(Cl)ccc3C(=O)O)C2=O)cc1 | 331 nM
CCCCCCCCn1ccc(=N)cc1 | > 80000 nM (inactive)
